# Measured values published in patent US9371265B2, “Compositions and methods related to inhibitors of JAK kinase” (EP PHARMA, INC., priority 2012, dated 2016).
# Tests used:
# JNK3 = JNK3 (Homo sapiens, UniProt P53779); assay: Kinase panel: JNK3; type: biochemical; settings: 10 μM EP009
# Protocol: (§1) Achieving JAK3 selectivity remains a significant challenge in the development of new small molecules for the treatment of cancer and immune-derived diseases. As such, the inventors employed cell-based screening assays of small-molecule libraries based upon the chemical scaffold of the established JAK3 inhibitor NC1153 (Stepkowski et al., J Immunol. (2005), 175(7):4236-4246) EP009 (FIG. 2A) was selected as a lead compound due to improved intrinsic stability (>95% purity in various solvents at 37° C. for 24 hours; FIG. 3) and high-degree of JAK3 selectivity. To test JAK3 versus JAK2 specificity of EP009, the IL-2/JAK3-dependent Kit225, and IL-3/JAK2-dependent BaF/3 cell lines were used. Kit225 and BaF/3 cells growing in the presence of IL-2 or IL-3, respectively, were treated with ascending concentrations of EP009 for 12 hours and cellular JAK3 and JAK2 tyrosine phosphorylation levels detected by Western blot analysis (FIGS. 2B and 2C). Following densitometric analysis, EP009 was determined to dose-dependently reduce IL-2-mediated JAK3 tyrosine phosphorylation with a cellular 50% inhibitory concentration (IC50) between 10 and 20 μM (FIG. 2B). […] To globally evaluate specificity, the inhibitory activity of EP009 was measured against a panel of protein kinases distributed throughout the kinome using the scanEDGE profiling service (KINOMEscan). […]
# FLT3 = FLT3 (Homo sapiens, UniProt P36888); assay: Kinase panel: FLT3; type: biochemical; settings: 10 μM EP009
# Protocol: as §1
# DYRK1B = DYRK1B (Homo sapiens, UniProt Q9Y463); assay: Kinase panel: DYRK1B; type: biochemical; settings: 10 μM EP009
# Protocol: as §1
# AXL = AXL (Homo sapiens, UniProt P30530); assay: Kinase panel: AXL; type: biochemical; settings: 10 μM EP009
# Protocol: as §1
# BRAF = BRAF (Homo sapiens, UniProt P15056); assay: Kinase panel: BRAF; type: biochemical; settings: 10 μM EP009
# Protocol: as §1
# JAK3 = JAK3 (Homo sapiens, UniProt P52333); assay: Constitutive JAK3 tyrosine phosphorylation in SU-DHL-1 cells (IP/Western blot); type: cell-based; design: cellular JAK3 and JAK2 tyrosine phosphorylation levels detected by Western blot analysis; endogenous in cells; settings: 20 μM EP009, 12 hours, vs vehicle
# From the text: FIGS. 6A-6B. EP009 treatment disrupts constitutive JAK3/STAT3 pathway activation and down-regulates CD30 cell surface expression in human ALCL cells. (A) Kit225 (lane a), SUP-M2 (lane b), Karpas299 (lane c), DEL (lane d) and SU-DHL-1 (lane e) total cell lysates were separated by 7.5% SDS-PAGE (upper panel) or were immunoprecipitated (IP) with JAK3 antibodies (lower panel) and separated on 7.5% SDS-PAGE, and then subjected to Western blot (WB) analysis with the indicated antibodies. (B) SU-DHL-1 cells were treated with vehicle (PBS; lane a) or increasing amounts of EP009 (0-40 μM; lanes b-e) for 12 hours. Cells were then lysed, clarified, and immunoprecipitated (IP) with anti-JAK3 (α-JAK3), and subjected to Western blot (WB) analysis with anti-phosphotyrosine (α-pY). Blots were stripped and reprobed with α-JAK3 to verify equivalent protein loading. (C) SU-DHL-1 cells were treated with vehicle (PBS) or increasing amounts of EP009 (0-40 μM) for 12 hours. […] Values represent pSTAT mean fluorescence intensity (MFI) normalized to corresponding GAPDH MFI, while error bars represent the standard deviation (n=2). Statistical significance was determined using Student's t-test. […] Cells were then analyzed by flow cytometry for CD30 expression. […]
# TIE2 = TIE2 (Homo sapiens, UniProt Q02763); assay: Kinase panel: TIE2; type: biochemical; settings: 10 μM EP009
# Protocol: as §1
# TIE2, sequence (Q02763 23-1124): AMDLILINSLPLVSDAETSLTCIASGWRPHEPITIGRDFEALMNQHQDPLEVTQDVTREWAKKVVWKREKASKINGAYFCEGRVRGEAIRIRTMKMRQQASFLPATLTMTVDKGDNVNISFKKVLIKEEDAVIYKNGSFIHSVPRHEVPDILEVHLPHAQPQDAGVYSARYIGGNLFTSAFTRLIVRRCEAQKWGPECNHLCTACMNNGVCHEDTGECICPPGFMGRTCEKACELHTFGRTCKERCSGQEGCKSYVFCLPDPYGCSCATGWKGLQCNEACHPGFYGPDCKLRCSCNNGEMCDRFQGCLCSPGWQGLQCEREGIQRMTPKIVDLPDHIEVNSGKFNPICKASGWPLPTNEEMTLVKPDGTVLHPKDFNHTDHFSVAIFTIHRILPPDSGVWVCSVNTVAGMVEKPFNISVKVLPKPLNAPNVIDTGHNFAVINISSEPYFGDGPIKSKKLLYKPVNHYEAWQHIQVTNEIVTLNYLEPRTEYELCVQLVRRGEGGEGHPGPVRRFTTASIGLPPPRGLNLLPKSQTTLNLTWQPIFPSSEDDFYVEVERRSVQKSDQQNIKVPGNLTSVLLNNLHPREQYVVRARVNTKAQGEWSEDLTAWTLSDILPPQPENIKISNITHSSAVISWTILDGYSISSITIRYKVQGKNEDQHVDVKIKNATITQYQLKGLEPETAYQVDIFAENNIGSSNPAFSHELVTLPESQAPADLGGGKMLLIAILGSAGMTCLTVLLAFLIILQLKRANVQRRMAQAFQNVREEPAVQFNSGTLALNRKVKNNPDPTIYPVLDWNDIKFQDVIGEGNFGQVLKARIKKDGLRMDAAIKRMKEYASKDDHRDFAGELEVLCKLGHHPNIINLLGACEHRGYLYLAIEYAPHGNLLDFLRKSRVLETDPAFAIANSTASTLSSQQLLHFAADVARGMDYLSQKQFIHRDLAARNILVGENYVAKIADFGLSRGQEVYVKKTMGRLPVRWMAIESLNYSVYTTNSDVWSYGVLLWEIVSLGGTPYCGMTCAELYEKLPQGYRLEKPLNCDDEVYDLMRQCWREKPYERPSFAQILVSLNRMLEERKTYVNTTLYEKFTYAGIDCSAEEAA
# JAK3, sequence (P52333 whole entry): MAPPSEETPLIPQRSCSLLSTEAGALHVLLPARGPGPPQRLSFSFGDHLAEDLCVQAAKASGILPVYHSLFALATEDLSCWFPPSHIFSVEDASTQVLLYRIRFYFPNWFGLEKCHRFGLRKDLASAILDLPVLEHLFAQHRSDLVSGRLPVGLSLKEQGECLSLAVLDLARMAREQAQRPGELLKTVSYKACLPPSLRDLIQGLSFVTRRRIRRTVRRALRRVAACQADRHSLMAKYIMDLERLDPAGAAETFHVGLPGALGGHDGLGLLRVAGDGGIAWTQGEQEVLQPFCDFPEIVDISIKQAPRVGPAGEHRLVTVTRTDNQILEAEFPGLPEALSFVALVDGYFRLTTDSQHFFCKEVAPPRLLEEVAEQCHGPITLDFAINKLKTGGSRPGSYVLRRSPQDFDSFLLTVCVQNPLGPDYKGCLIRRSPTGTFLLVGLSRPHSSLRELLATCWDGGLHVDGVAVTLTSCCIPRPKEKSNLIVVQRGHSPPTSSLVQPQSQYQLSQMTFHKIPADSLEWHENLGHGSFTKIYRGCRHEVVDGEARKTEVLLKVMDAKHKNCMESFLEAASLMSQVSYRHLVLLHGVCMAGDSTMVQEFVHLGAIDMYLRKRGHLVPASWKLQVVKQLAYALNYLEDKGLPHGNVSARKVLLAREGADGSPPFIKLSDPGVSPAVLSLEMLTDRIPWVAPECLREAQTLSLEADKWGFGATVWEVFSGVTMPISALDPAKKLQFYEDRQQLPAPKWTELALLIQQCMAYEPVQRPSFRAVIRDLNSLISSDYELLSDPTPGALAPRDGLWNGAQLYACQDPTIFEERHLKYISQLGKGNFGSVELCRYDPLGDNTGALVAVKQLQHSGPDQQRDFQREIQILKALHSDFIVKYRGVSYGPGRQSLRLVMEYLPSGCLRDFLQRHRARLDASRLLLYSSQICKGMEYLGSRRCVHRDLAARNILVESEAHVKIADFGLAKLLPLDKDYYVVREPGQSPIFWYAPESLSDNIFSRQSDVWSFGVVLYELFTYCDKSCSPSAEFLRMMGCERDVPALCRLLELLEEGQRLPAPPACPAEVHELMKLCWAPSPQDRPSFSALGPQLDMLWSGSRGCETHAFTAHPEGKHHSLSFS
# BRAF, sequence (P15056 whole entry): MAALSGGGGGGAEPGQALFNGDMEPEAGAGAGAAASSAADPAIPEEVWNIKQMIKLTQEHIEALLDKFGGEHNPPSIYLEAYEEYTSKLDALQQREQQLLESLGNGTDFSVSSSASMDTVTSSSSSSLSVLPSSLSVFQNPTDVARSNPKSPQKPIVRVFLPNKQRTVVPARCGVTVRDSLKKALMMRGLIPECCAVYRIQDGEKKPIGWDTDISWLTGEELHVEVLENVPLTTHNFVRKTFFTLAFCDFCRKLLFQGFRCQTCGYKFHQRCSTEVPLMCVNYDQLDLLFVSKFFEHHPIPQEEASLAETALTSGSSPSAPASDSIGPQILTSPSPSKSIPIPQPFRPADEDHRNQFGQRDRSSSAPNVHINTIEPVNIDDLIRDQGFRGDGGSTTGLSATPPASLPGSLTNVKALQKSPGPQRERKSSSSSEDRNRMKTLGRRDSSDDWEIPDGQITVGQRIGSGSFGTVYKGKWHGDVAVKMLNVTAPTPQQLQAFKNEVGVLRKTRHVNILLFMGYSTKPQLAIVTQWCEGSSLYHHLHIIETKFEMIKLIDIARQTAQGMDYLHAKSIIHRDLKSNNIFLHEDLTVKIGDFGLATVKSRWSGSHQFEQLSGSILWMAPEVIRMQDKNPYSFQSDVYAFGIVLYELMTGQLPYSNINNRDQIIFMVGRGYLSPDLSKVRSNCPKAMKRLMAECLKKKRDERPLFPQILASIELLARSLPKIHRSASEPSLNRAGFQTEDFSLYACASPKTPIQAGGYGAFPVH
# FLT3, sequence (P36888 27-993): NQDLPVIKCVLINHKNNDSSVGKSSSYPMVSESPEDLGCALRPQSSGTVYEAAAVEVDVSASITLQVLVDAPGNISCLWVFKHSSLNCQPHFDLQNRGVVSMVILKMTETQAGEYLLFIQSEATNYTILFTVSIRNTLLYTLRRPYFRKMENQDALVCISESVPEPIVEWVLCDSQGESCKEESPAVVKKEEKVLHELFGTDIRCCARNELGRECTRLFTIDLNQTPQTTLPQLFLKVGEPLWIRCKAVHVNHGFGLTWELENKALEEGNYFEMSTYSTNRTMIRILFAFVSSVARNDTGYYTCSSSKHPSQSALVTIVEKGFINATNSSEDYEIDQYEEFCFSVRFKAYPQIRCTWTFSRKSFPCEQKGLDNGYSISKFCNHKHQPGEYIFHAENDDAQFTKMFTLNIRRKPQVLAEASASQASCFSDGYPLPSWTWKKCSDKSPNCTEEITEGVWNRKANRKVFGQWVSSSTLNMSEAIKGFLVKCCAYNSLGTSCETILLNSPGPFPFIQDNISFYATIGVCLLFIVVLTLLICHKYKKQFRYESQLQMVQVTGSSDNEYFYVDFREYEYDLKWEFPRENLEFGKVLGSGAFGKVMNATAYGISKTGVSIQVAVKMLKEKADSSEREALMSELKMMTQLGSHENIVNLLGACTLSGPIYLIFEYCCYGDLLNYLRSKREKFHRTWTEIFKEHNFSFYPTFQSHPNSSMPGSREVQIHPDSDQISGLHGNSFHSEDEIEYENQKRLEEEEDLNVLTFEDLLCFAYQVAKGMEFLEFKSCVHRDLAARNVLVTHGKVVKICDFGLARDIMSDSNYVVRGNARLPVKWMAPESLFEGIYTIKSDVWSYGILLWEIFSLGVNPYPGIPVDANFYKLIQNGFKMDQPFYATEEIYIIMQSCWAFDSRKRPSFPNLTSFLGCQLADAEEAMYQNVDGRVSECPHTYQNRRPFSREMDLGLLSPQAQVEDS
# JNK3, sequence (P53779 whole entry): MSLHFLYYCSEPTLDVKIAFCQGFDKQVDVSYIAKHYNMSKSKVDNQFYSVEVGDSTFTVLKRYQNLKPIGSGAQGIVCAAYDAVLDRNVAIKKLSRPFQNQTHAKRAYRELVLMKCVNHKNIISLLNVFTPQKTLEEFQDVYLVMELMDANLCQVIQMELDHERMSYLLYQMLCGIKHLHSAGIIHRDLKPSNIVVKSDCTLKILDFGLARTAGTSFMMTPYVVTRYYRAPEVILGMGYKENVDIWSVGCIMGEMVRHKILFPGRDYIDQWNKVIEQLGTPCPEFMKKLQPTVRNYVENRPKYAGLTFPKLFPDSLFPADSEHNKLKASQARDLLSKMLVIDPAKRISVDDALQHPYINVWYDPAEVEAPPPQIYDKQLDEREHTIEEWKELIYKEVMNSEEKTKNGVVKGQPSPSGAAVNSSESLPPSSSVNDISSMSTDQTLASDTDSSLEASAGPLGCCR
# DYRK1B, sequence (Q9Y463 whole entry): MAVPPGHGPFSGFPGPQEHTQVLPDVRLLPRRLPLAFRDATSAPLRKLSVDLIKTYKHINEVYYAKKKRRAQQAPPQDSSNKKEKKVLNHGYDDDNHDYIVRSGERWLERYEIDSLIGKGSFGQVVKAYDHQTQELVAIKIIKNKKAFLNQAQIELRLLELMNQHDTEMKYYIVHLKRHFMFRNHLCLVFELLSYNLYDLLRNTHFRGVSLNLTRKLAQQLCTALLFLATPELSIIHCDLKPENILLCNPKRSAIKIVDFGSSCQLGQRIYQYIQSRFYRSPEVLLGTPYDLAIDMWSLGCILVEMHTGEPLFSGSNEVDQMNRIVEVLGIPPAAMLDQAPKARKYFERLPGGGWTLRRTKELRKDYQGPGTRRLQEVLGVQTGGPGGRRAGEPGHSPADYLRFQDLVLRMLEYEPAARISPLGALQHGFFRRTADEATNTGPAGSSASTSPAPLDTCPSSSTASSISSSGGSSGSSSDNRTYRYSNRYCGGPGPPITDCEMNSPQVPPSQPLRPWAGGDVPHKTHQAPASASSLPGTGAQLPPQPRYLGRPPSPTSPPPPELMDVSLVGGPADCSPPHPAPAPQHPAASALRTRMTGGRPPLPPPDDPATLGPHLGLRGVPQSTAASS
structure (smiles),measurement,setting,value
"C=C1CCCCCCCCCC(CO)C1=O (stereo not shown) [EP009, 2-(Hydroxymethyl)-12-methylenecyclododecanone]",Kinase Activity (% of Control),JNK3,100 % of Control
same,Kinase Activity (% of Control),FLT3,99 % of Control
same,Kinase Activity (% of Control),DYRK1B,100 % of Control
same,Kinase Activity (% of Control),AXL,96 % of Control
same,Kinase Activity (% of Control),BRAF,72 % of Control
same,decrease in JAK3 tyrosine phosphorylation levels,JAK3,70%
same,Kinase Activity (% of Control),TIE2,90 % of Control
